# Experiments:
# Format in all cases: in vivo
# Uncinula necator = experiment: Grape Powdery Mildew (UNCINE) disease control; settings: Erysiphe necator, topical, 24 h, 1 Day Protectant, read-out: Disease Control UNCINE 1 DP
# Protocol: Technical grades of materials were dissolved in acetone, which were then mixed with nine volumes of water containing 110 ppm Triton X-100. The fungicide solutions were applied onto wheat seedlings using an automated booth sprayer to run-off. All sprayed plants were allowed to air dry prior to further handling. All fungicides were evaluated using the aforementioned method for their activity vs. all target diseases. Wheat leaf blotch and brown rust activity were also evaluated using track spray applications, in which case the fungicides were formulated as EC formulations, containing 0.1% Trycol 5941 in the spray solutions. Wheat plants (variety Yuma) were grown from seed in a greenhouse in 50% mineral soil/50% soil-less Metro mix until the first leaf was fully emerged, with 7-10 seedlings per pot. These plants were inoculated with an aqueous spore suspension of Septoria tritici either prior to or after fungicide treatments. After inoculation the plants were kept in 100% relative humidity (one day in a dark dew chamber followed by two to three days in a lighted dew chamber at 20° C.) to permit spores to germinate and infect the leaf. The plants were then transferred to a greenhouse set at 20° C. for disease to develop. When disease symptoms were fully expressed on the 1st leaves of untreated plants, infection levels were assessed on a scale of 0 to 100 percent disease severity. Percent disease control was calculated using the ratio of disease severity on treated plants relative to untreated plants. Grape seedlings (variety Carignane) were grown in soil-less Metro mix, with one plant per pot, and used in the test when approximately one month old. Plants were inoculated 24 hr after fungicide treatment by shaking spores from infected leaves over test plants. Plants were maintained in a greenhouse set at 20° C. until disease was fully developed. Fungicide formulation, application and disease assessment on the sprayed leaves followed the procedures as described in the Example A.
# Erysiphe cichoracearum = experiment: Powdery Mildew of Cucumber (ERYSCI) disease control; settings: Golovinomyces cichoracearum, topical, 24 h, 1 Day Protectant, read-out: Disease Control ERYSCI 1 DP
# Protocol: Technical grades of materials were dissolved in acetone, which were then mixed with nine volumes of water containing 110 ppm Triton X-100. The fungicide solutions were applied onto wheat seedlings using an automated booth sprayer to run-off. All sprayed plants were allowed to air dry prior to further handling. All fungicides were evaluated using the aforementioned method for their activity vs. all target diseases. Wheat leaf blotch and brown rust activity were also evaluated using track spray applications, in which case the fungicides were formulated as EC formulations, containing 0.1% Trycol 5941 in the spray solutions. Wheat plants (variety Yuma) were grown from seed in a greenhouse in 50% mineral soil/50% soil-less Metro mix until the first leaf was fully emerged, with 7-10 seedlings per pot. These plants were inoculated with an aqueous spore suspension of Septoria tritici either prior to or after fungicide treatments. After inoculation the plants were kept in 100% relative humidity (one day in a dark dew chamber followed by two to three days in a lighted dew chamber at 20° C.) to permit spores to germinate and infect the leaf. The plants were then transferred to a greenhouse set at 20° C. for disease to develop. When disease symptoms were fully expressed on the 1st leaves of untreated plants, infection levels were assessed on a scale of 0 to 100 percent disease severity. Percent disease control was calculated using the ratio of disease severity on treated plants relative to untreated plants. Cucumber seedlings (variety Bush Pickle) were grown in soil-less Metro mix, with one plant per pot, and used in the test when 12 to 14 days old. Plants were inoculated with a spore suspension 24 hr following fungicide treatments. After inoculation the plants remained in the greenhouse set at 20° C. until disease was fully expressed. Fungicide formulation, application and disease assessment on the sprayed leaves followed the procedures as described in the Example A.
# [1] = test system: Blumeria graminis f. sp. hordei; Synonym: Erysiphe graminis f. sp. hordei; experiment: Barley Powdery Mildew (ERYSGH) disease control; settings: 1 Day Protectant; for pest or weed control at 100 ppm: Blumeria graminis, 24 h, read-out: Disease Control ERYSGH 1 DP
# Protocol: Technical grades of materials were dissolved in acetone, which were then mixed with nine volumes of water containing 110 ppm Triton X-100. The fungicide solutions were applied onto wheat seedlings using an automated booth sprayer to run-off. All sprayed plants were allowed to air dry prior to further handling. All fungicides were evaluated using the aforementioned method for their activity vs. all target diseases. Wheat leaf blotch and brown rust activity were also evaluated using track spray applications, in which case the fungicides were formulated as EC formulations, containing 0.1% Trycol 5941 in the spray solutions. Wheat plants (variety Yuma) were grown from seed in a greenhouse in 50% mineral soil/50% soil-less Metro mix until the first leaf was fully emerged, with 7-10 seedlings per pot. These plants were inoculated with an aqueous spore suspension of Septoria tritici either prior to or after fungicide treatments. After inoculation the plants were kept in 100% relative humidity (one day in a dark dew chamber followed by two to three days in a lighted dew chamber at 20° C.) to permit spores to germinate and infect the leaf. The plants were then transferred to a greenhouse set at 20° C. for disease to develop. When disease symptoms were fully expressed on the 1st leaves of untreated plants, infection levels were assessed on a scale of 0 to 100 percent disease severity. Percent disease control was calculated using the ratio of disease severity on treated plants relative to untreated plants. Barley seedlings (variety Harrington) were propagated in soil-less Metro mix, with each pot having 8 to 12 plants, and used in the test when first leaf was fully emerged. Test plants were inoculated by dusting with infected stock plants 24 hr after fungicide treatments. After inoculation the plants were kept in a greenhouse set at 20° C. for disease to develop. Fungicide formulation, application and disease assessment on the sprayed leaves followed the procedures as described in the Example A.
# [2] = test system: Glomerella lagenarium; Anamorph: Colletotrichum lagenarium; experiment: Cucumber Anthracnose (COLLLA) disease control; settings: Colletotrichum orbiculare, topical, 24 h, 1 Day Protectant, read-out: Disease Control COLLLA 1 DP
# Protocol: Technical grades of materials were dissolved in acetone, which were then mixed with nine volumes of water containing 110 ppm Triton X-100. The fungicide solutions were applied onto wheat seedlings using an automated booth sprayer to run-off. All sprayed plants were allowed to air dry prior to further handling. All fungicides were evaluated using the aforementioned method for their activity vs. all target diseases. Wheat leaf blotch and brown rust activity were also evaluated using track spray applications, in which case the fungicides were formulated as EC formulations, containing 0.1% Trycol 5941 in the spray solutions. Wheat plants (variety Yuma) were grown from seed in a greenhouse in 50% mineral soil/50% soil-less Metro mix until the first leaf was fully emerged, with 7-10 seedlings per pot. These plants were inoculated with an aqueous spore suspension of Septoria tritici either prior to or after fungicide treatments. After inoculation the plants were kept in 100% relative humidity (one day in a dark dew chamber followed by two to three days in a lighted dew chamber at 20° C.) to permit spores to germinate and infect the leaf. The plants were then transferred to a greenhouse set at 20° C. for disease to develop. When disease symptoms were fully expressed on the 1st leaves of untreated plants, infection levels were assessed on a scale of 0 to 100 percent disease severity. Percent disease control was calculated using the ratio of disease severity on treated plants relative to untreated plants. Cucumber seedlings (variety Bush Pickle) were propagated in soil-less Metro mix, with each pot having one plant, and used in the test when 12 to 14 days old. Test plants were inoculated with an aqueous spore suspension of Colletotrichum lagenarium 24 hr after fungicide treatments. After inoculation the plants were kept in a dew room at 22° C. with 100% relative humidity for 48 hr to permit spores to germinate and infect the leaf. The plants were then transferred to a growth room set at 22° C. for disease to develop. Fungicide formulation, application and disease assessment on the sprayed leaves followed the procedures as described in the Example A.
Structure (SMILES),pest or weed control at 100 ppm (Uncinula necator),pest or weed control at 100 ppm (Erysiphe cichoracearum),pest or weed control at 100 ppm [1],pest or weed control at 100 ppm [2],Disease Control ERYSGH 1 DP ([1]; 100 ppm)
CCOCC(=O)OCOc1c(OC)ccnc1C(=O)N[C@H]1CCC[C@H](CCF)[C@@H](OCC(C)C)[C@H](C)OC1=O [Compound F181],0 to 80%,0 to 80%,0 to 80%,80 to 100%,
CCCO[C@@H]1[C@@H](Cc2ccccc2)CCC[C@H](NC(=O)c2nccc(OC)c2OCOC(C)=O)C(=O)O[C@H]1C [Compound F109],80 to 100%,80 to 100%,80 to 100%,80 to 100%,
CCCO[C@@H]1[C@@H](Cc2ccc(F)cc2)CCC[C@H](NC(=O)c2nccc(OC)c2OCOC(C)=O)C(=O)O[C@H]1C [Compound F101],80 to 100%,80 to 100%,80 to 100%,80 to 100%,
COCC[C@H]1CCC[C@H](NC(=O)c2nccc(OC)c2OC(C)=O)C(=O)O[C@@H](C)[C@@H]1Oc1ccccc1 [Compound F78],0 to 80%,0 to 80%,0 to 80%,80 to 100%,
COc1ccnc(C(=O)N[C@H]2CCC[C@H](Cc3ccccc3)[C@@H](OCC(C)C)[C@H](C)OC2=O)c1OC(C)=O [Compound F70],80 to 100%,80 to 100%,80 to 100%,80 to 100%,
CCOCC(=O)OCOc1c(OC)ccnc1C(=O)N[C@H]1CCC[C@H](Cc2ccccc2)[C@@H](OCC2CC2)[C@H](C)OC1=O [Compound F173],0 to 80%,80 to 100%,80 to 100%,80 to 100%,
"COc1ccnc(C(=O)N[C@H]2CCC[C@H](CCF)[C@@H](OCC(C)C)[C@H](C)OC2=O)c1OCOC(C)=O [Compound F128, ((2-(((3S,7R,8R,9S)-7-(2-fluoroethyl)-8-isobutoxy-9-methyl-2-oxooxonan-3-yl)carbamoyl)-4-methoxypyridin-3-yl)oxy)methyl acetate]",80 to 100%,0 to 80%,0 to 80%,80 to 100%,
CCCO[C@@H]1[C@@H](Cc2ccc(F)cc2)CCC[C@H](NC(=O)c2nccc(OC)c2OCOC(=O)COCC)C(=O)O[C@H]1C [Compound F167],80 to 100%,80 to 100%,80 to 100%,80 to 100%,
COCC[C@H]1CCC[C@H](NC(=O)c2nccc(OC)c2OCOC(C)=O)C(=O)O[C@@H](C)[C@@H]1Oc1ccccc1 [Compound F130],0 to 80%,0 to 80%,0 to 80%,80 to 100%,
COc1ccnc(C(=O)N[C@H]2CCC[C@H](Cc3ccccc3)[C@@H](OCC3CC3)[C@H](C)OC2=O)c1OCOC(C)=O [Compound F107],0 to 80%,80 to 100%,80 to 100%,80 to 100%,
COc1ccnc(C(=O)N[C@H]2CCC[C@H](Cc3ccccc3)[C@@H](OCC3CC3)[C@H](C)OC2=O)c1OCOC(=O)C(C)C [Compound F152],0 to 80%,80 to 100%,80 to 100%,80 to 100%,
CCCO[C@@H]1[C@@H](CCC(C)C)CCC[C@H](NC(=O)c2nccc(OC)c2OCOC(=O)COCC)C(=O)O[C@H]1C [Compound F161],80 to 100%,80 to 100%,80 to 100%,80 to 100%,
CC[C@H]1CCC[C@H](NC(=O)c2nccc(OC)c2OC(C)=O)C(=O)O[C@@H](C)[C@@H]1Oc1ccccc1 [Compound F81],80 to 100%,0 to 80%,0 to 80%,80 to 100%,
COc1ccnc(C(=O)N[C@H]2CCC[C@H](Cc3ccc(F)cc3)[C@@H](OCC3CC3)[C@H](C)OC2=O)c1OCOC(C)=O [Compound F96],80 to 100%,80 to 100%,,80 to 100%,B (More than 0-Less than 80)
CCOCC(=O)OCOc1c(OC)ccnc1C(=O)N[C@H]1CCC[C@H](Cc2ccccc2)[C@@H](OCC(C)C)[C@H](C)OC1=O [Compound F172],0 to 80%,80 to 100%,80 to 100%,80 to 100%,
COc1ccnc(C(=O)N[C@H]2CCC[C@H](Cc3ccccc3)[C@@H](OCC(C)C)[C@H](C)OC2=O)c1OCOC(C)=O [Compound F106],80 to 100%,80 to 100%,80 to 100%,80 to 100%,
COc1ccnc(C(=O)N[C@H]2CCC[C@H](Cc3ccc(F)cc3)[C@@H](OCC3CC3)[C@H](C)OC2=O)c1OC(C)=O [Compound F67],0 to 80%,0 to 80%,80 to 100%,80 to 100%,

# — patent publication US9265253B2, “Use of macrocyclic picolinamides as fungicides” (DOW AGROSCIENCES LLC, priority 2013, dated 2016)
